How the values were obtained:
Rat FAAH = biological target: T1, Rat FAAH (Rattus norvegicus, UniProt P97612); assay: Assay Method 2: FAAH assay, 3H-anandamide hydrolysis in cell homogenate; format: biochemical; conditions: transfected SK-N-MC cell homogenate, 80 nM 3H-AEA, 1 h rt, > = solubility limit or highest concentration tested
T1 construct: expressed in transfected cells
T1 sequence (P97612 1-579): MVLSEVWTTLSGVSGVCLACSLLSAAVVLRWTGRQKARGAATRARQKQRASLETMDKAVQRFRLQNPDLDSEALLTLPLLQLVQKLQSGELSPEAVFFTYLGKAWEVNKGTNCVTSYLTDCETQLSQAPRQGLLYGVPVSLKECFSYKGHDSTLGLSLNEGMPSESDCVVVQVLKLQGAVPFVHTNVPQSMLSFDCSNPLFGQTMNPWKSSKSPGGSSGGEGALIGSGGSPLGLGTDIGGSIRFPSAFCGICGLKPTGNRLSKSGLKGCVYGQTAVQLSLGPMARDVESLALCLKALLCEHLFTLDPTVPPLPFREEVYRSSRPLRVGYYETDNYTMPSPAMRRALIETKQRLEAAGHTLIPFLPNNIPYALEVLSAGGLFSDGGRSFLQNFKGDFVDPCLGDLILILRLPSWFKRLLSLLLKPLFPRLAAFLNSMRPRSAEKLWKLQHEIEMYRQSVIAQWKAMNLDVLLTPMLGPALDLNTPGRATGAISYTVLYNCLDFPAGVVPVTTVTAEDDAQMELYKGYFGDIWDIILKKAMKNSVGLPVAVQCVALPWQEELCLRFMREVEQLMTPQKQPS
Protocol: A. Transfection of Cells with Rat FAAH
(§1) A 10-cm tissue culture dish with a confluent monolayer of SK-N-MC cells was split 2 days (d) prior to transfection. Using sterile technique, the media was removed and the cells were detached from the dish by the addition of trypsin. One fifth of the cells were then placed onto a new 10-cm dish. Cells were grown in a 37° C. incubator with 5% CO2 in Minimal Essential Media Eagle with 10% Fetal Bovine Serum. After 2 d, cells were approximately 80% confluent. These cells were removed from the dish with trypsin and pelleted in a clinical centrifuge. The pellet was re-suspended in 400 μL complete media and transferred to an electroporation cuvette with a 0.4 cm gap between the electrodes. Supercoiled rat FAAH cDNA (1 μg) was added to the cells and mixed. The voltage for the electroporation was set at 0.25 kV, and the capacitance was set at 960 μF. After electroporation, the cells were diluted into complete media (10 mL) and plated onto four 10-cm dishes. Because of the variability in the efficiency of electroporation, four different concentrations of cells were plated. The ratios used were 1:20, 1:10, and 1:5, with the remainder of the cells being added to the fourth dish. The cells were allowed to recover for 24 h before adding the selection media (complete media with 600 μg/mL G418). After 10 d, dishes were analyzed for surviving colonies of cells. Dishes with well-isolated colonies were used. Cells from individual colonies were isolated and tested.
(§2) The assay mixture consisted of 50 μL of the cell homogenate, 10 μL of the test compound, and 40 μL of anandamide [1-^3H-ethanolamine] (^3H-AEA, Perkin-Elmer, 10.3 Ci/mmol), which was added last, for a final tracer concentration of 80 nM. The reaction mixture was incubated at it for 1 h. During the incubation, 96-well Multiscreen filter plates (catalog number MAFCNOB50; Millipore, Bedford, Mass., USA) were loaded with 25 μL of activated charcoal (Multiscreen column loader, catalog number MACL09625, Millipore) and washed once with 100 μL of MeOH. Also during the incubation, 96-well DYNEX MicroLite plates (catalog number NL510410) were loaded with 100 μL of MicroScint40 (catalog number 6013641, Packard Bioscience, Meriden, Conn., USA). After the 1 h incubation, 60 μL of the reaction mixture were transferred to the charcoal plates, which were then assembled on top of the DYNEX plates using Centrifuge Alignment Frames (catalog number MACF09604, Millipore). The unbound labeled ethanolamine . was centrifuged through to the bottom plate (5 min at 2000 rpm), which was preloaded with the scintillant, as described above. The plates were sealed and left at rt for 1 h before counting on a Hewlett Packard TopCount.
(§3) Where activity is shown as greater than (>) a particular value, the value is the solubility limit of the compound in the assay medium or the highest concentration tested in the assay.

FAAH = biological target: T2, FAAH (Homo sapiens, UniProt O00519); assay: Assay Method 1: FAAH assay, 3H-anandamide hydrolysis in cell homogenate; format: biochemical; parameters: expressed in transfected cells; conditions: T84 or transfected SK-N-MC cell homogenate, 80 nM 3H-AEA, 1 h rt, > = solubility limit or highest concentration tested
T2 sequence (O00519 1-579): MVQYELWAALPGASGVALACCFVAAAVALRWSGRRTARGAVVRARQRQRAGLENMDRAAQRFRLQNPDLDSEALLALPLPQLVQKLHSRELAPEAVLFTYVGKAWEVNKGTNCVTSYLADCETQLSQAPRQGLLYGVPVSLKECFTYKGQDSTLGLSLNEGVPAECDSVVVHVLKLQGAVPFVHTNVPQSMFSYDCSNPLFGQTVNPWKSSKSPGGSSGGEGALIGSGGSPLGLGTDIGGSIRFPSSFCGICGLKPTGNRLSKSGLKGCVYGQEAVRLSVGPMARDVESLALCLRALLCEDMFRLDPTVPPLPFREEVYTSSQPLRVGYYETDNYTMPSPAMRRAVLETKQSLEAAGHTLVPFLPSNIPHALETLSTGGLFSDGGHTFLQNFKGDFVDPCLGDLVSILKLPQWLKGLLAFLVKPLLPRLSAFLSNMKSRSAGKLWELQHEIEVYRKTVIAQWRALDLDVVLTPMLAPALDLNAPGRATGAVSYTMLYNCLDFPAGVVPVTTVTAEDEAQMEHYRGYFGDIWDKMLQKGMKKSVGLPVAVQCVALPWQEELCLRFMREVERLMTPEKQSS
Protocol: A. Transfection of Cells with Human FAAH
as §1, with “Supercoiled human” for “Supercoiled rat”
as §2, with “at rt” for “at it”, “ethanolamine” for “ethanolamine .”
as §3

| Structure (SMILES) | IC50 (Rat FAAH) [µM] | IC50 (FAAH) [µM] |
| --- | --- | --- |
| O=C(c1ncco1)C1CCN(Cc2ccc3c(c2)OCO3)CC1 [Example 15, (1-Benzo[1,3]dioxol-5-ylmethyl-piperidin-4-yl)-oxazol-2-yl-methanone] | 0.582 | 0.113 |
| CC(C)COc1cccc(CN2CCC(C(=O)c3ncco3)CC2)c1 [Example 16, [1-(3-Isobutoxy-benzyl)-piperidin-4-yl]-oxazol-2-yl-methanone] | 0.975 | 0.031 |
| O=C(c1ncco1)C1CCN(Cc2cccc(C(F)(F)F)c2)CC1 [Example 18, Oxazol-2-yl-[1-(3-trifluoromethyl-benzyl)-piperidin-4-yl]-methanone] | 0.096 | 0.051 |
| O=C(c1ncco1)C1CCN(Cc2ccc(C(F)(F)F)cc2)CC1 [Example 19] | 0.015 | 0.01 |
| O=C(c1ncco1)C1CCN(Cc2cccc(OC3CCCCC3)c2)CC1 [Example 22, [1-(3-Cyclohexyloxy-benzyl)-piperidin-4-yl]-oxazol-2-yl-methanone] | 0.79 | 0.012 |
| CC(C)Oc1ccc(CN2CCC(C(=O)c3ncco3)CC2)cc1 [Example 23, [1-(4-Isopropoxy-benzyl)-piperidin-4-yl]-oxazol-2-yl-methanone] | > 10 | 5 |
| CS(=O)(=O)c1cc(Br)ccc1CN1CCC(C(=O)c2ncco2)CC1 [Example 25, [1-(4-Bromo-2-methanesulfonyl-benzyl)-piperidin-4-yl]-oxazol-2-yl-methanone] | 0.023 | 0.013 |
| O=C(c1ncco1)C1CCN(Cc2ccc(Br)c([N+](=O)[O-])c2)CC1 [Example 26, [1-(4-Bromo-3-nitro-benzyl)-piperidin-4-yl]-oxazol-2-yl-methanone] | 0.009 | 0.003 |
| O=C(c1ncco1)C1CCN(Cc2ccc(Br)cc2F)CC1 [Example 27, [1-(4-Bromo-2-fluoro-benzyl)-piperidin-4-yl]-oxazol-2-yl-methanone] | 0.075 | 0.011 |
| CCOc1cccc(CN2CCC(C(=O)c3ncco3)CC2)c1 [Example 29, [1-(3-Ethoxy-benzyl)-piperidin-4-yl]-oxazol-2-yl-methanone] | 1.4 | 0.17 |
| O=C(c1ncco1)C1CCN(Cc2ccc(F)cc2)CC1 [Example 30, [1-(4-Fluoro-benzyl)-piperidin-4-yl]-oxazol-2-yl-methanone] | 0.873 | 0.148 |
| O=C(c1ncco1)C1CCN(Cc2cccc(F)c2)CC1 [Example 31, [1-(3-Fluoro-benzyl)-piperidin-4-yl]-oxazol-2-yl-methanone] | 1.4 | 0.303 |
| O=C(c1ncco1)C1CCN(Cc2ccccc2F)CC1 [Example 32, [1-(2-Fluoro-benzyl)-piperidin-4-yl]-oxazol-2-yl-methanone] | > 10 | 1.5 |
| O=C(c1ncco1)C1CCN(Cc2ccccc2Cl)CC1 [Example 33, [1-(2-Chloro-benzyl)-piperidin-4-yl]-oxazol-2-yl-methanone] | 0.89 | 0.156 |
| O=C(c1ncco1)C1CCN(Cc2cccc(Cl)c2)CC1 [Example 34, [1-(3-Chloro-benzyl)-piperidin-4-yl]-oxazol-2-yl-methanone] | 0.3 | 0.078 |
| O=C(c1ncco1)C1CCN(Cc2ccc(Cl)cc2)CC1 [Example 35, [1-(4-Chloro-benzyl)-piperidin-4-yl]-oxazol-2-yl-methanone] | 0.04 | 0.019 |
| O=C(c1ncco1)C1CCN(Cc2ccc(OC(F)(F)F)cc2)CC1 [Example 36, Oxazol-2-yl-[1-(4-trifluoromethoxy-benzyl)-piperidin-4-yl]-methanone] | 0.04 | 0.025 |
| O=C(c1ncco1)C1CCN(Cc2cccc(OC(F)(F)F)c2)CC1 [Example 37, Oxazol-2-yl-[1-(3-trifluoromethoxy-benzyl)-piperidin-4-yl]-methanone] | 0.04 | 0.025 |
| O=C(c1ncco1)C1CCN(Cc2ccc(F)c(F)c2)CC1 [Example 38, [1-(3,4-Difluoro-benzyl)-piperidin-4-yl]-oxazol-2-yl-methanone] | 0.076 | 0.03 |
| Cn1ccc2cc(CN3CCC(C(=O)c4ncco4)CC3)ccc21 [Example 39, [1-(1-Methyl-1H-indol-5-ylmethyl)-piperidin-4-yl]-oxazot-2-yl-methanone] | 2 | 0.08 |
| Cn1ccc2ccc(CN3CCC(C(=O)c4ncco4)CC3)cc21 [Example 40, [1-(1-Methyl-1H-indol-6-ylmethyl)-piperidin-4-yl]-oxazol-2-yl-methanone] | 0.385 | 0.094 |

— US20100292266A1, “Oxazolyl Piperidine Modulators of Fatty Acid Amide Hydrolase” (priority 2006, published 2010)
